{
  "source": "patent US4853401A",
  "about": "“Spiro-hydantoins as aldose reductase inhibitors” (priority 1987, dated 1989)",
  "key": {"mice [1]": {"tested_on": "mice", "test": "Effect on behaviour (Irwin method), side effects", "format": "in vivo", "description": "The effect on behaviour was studied by a method derived from that of S. Irwin (Gordon Res. Conf. on Medicinal Chem., 133, 1959). The substances, suspended in 1% tragacanth mucilage, were orally administered via an intra-gastric probe to groups of 5 male mice fasted for 18 hours. The maximum tested dose was 3 000 mg/kg or 1 000 mg/kg, and smaller doses were tested if an effect has been observed.\nBehaviour was studied, 2, 4, 6 and 24 hours after treatment. Observation was continued if symptoms persisted at that time. Deaths were recorded during the 14 days after treatment. The results are given in Table II, in which the numbers of the compounds are the same as the numbers given in column 1 of Table I."}, "mice [2]": {"tested_on": "mice", "test": "Teratogenic effect on mice", "format": "in vivo", "details": "oral doses of 100 mg/kg and 1 000 mg/kg"}, "[3]": {"tested_on": "sorbitol accumulation in crystalline lenses", "test": "Effect of in vivo doses on sorbitol accumulation in crystalline lenses of diabetic rats", "parameters": "species or system Sprague Dawley rats", "from_the_text": "2.2 Effect of \"in vivo\" doses on sorbitol accumulation in sciatic nerves and crystalline lenses of diabetic rats:\nEstimates were made of the effects of the products on the proportion of plasma glucose and the sorbitol content of the crystalline lenses and sciatic nerves of rats."}, "[4]": {"tested_on": "accumulation of sorbitol in the crystalline lenses", "test": "Preventive effect of single dose: sorbitol in crystalline lenses", "format": "in vivo, Sprague Dawley rats", "details": "for Accumulation of sorbitol in crystalline lenses, treated: 10 mg/kg oral", "description": "(§1) 2.3. In vivo effects of a single dose of compound No. 2 (CP 3192 AR) on the variation in the proportion of plasma glucose and the accumulation of sorbitol in the crystalline lenses and sciatic nerves of diabetic rats.\n(§2) 2.3.1. Preventive effect. CP 3192 AR was administered simultaneously with the induction of diabetes. The experiment was performed on 33 male Sprague Dawley rats weighing about 200 g.\n(§3) At time 0 hours, 3 rats were sacrificed and used as non-diabetic controls. 30 fats fasted the previous day were made diabetic by an intraperitoneal injection of streptozotocin (75 mg/kg). A dose of 10 mg/kg of CP 3192 AR was simultaneously administered orally to 15 of the rats. The other 15 were given a placebo. 3 control rats and 3 rats treated with CP 3192 AR were sacrificed 2, 4, 8, 24 and 48 hours after induction of diabetes.\n(§4) An estimate was made of the effects of the product on the proportion of plasma glucose and the sorbitol content of the crystalline lenses and sciatic nerves."}, "[5]": {"test": "Preventive effect of single dose: plasma glucose", "format": "in vivo, Sprague Dawley rats", "details": "for Plasma glucose, treated: 10 mg/kg oral", "description": "as §1, §2, §3, §4"}, "[6]": {"tested_on": "accumulation of sorbitol in the crystalline lenses", "test": "Curative effect of single dose: sorbitol in crystalline lenses", "format": "in vivo, Sprague Dawley rats", "details": "for Accumulation of sorbitol in crystalline lenses, treated: 10 mg/kg oral", "description": "2.3.2. Curative effect: CP 3192 AR was administered 24 hours after induction of diabetes.\nAs before, the experiment was made on 33 male Sprague Dawley rats weighing about 200 g. The 33 rats, which had been fasted the previous day, were made diabetic by an intraperitoneal injection of streptozotocin (75 mg/kg).\n24 hours after induction of diabetes, 3 rats were sacrificed and used as diabetic controls. A dose of 10 mg/kg of CP 3192 AR was orally administered to 15 rats whereas the other 15 were given the excipient without an active product. 3 control rats and 3 rats treated with CP 3192 AR were sacrificed 2, 4, 8, 24 and 48 hours after administration of the product.\nEstimates were made of the effects of the product on the proportion of plasma glucose and the sorbitol content of the crystalline lenses and sciatic nerves of rats made diabetic by streptozotocin."}, "[7]": {"details": "single dose 10 mg/kg, lenses and sciatic nerves"}},
  "data": [
    {"smiles": "CC(=O)OCN1C(=O)N(COC(C)=O)C2(C1=O)c1ccccc1-c1ccccc12", "note": "[Compound 2, bis-(1',3'-acetoxymethyl)-spiro-/fluorene-9,4'-imidazolidine/-2',5'-dione]", "values": [
      {"measurement": "side effect observed", "setting": "mice [1]; dose of 3000 mg/kg", "result": "no side effect was observed"},
      {"measurement": "MED (minimum dose at which a side effect is observed)", "setting": "mice [1]; mice, oral", "result": "> 3 000 mg/kg"},
      {"measurement": "teratogenic effect", "setting": "mice [2]", "result": "does not have a mutagenic effect in the Ames test or teratogenic effect on mice"},
      {"measurement": "% inhibition of sorbitol accumulation, Crystalline lenses", "setting": "[3]; 0.3 mg/kg oral at 0, 7, 24 h", "result": "3 ± 25", "unit": "%"},
      {"measurement": "% inhibition of sorbitol accumulation, Crystalline lenses", "setting": "[3]; 1 mg/kg oral at 0, 7, 24 h", "result": 13, "unit": "%"},
      {"measurement": "% inhibition of sorbitol accumulation, Crystalline lenses", "setting": "[3]; 3 mg/kg oral at 0, 7, 24 h", "result": 46, "unit": "%"},
      {"measurement": "% inhibition of sorbitol accumulation, Crystalline lenses", "setting": "[3]; 10 mg/kg oral at 0, 7, 24 h", "result": 66, "unit": "%"},
      {"measurement": "ED50", "setting": "[3]; Rattus norvegicus, 27 h, crystalline lenses, diabetic rats, oral, read-out: ED50 (dose at which measured inhibition of aldose reductase activity is 50%)", "result": 3, "unit": "mg/kg"},
      {"measurement": "therapeutic index MED/ED50, crystalline lenses", "setting": "[3]; crystalline lenses", "result": "about 1 000"},
      {"measurement": "Accumulation of sorbitol in crystalline lenses, treated", "setting": "[4]; 2 h", "result": "3 ± 0", "unit": "µg"},
      {"measurement": "Accumulation of sorbitol in crystalline lenses, treated", "setting": "[4]; 4 h, p < 0.005", "result": "6.3 ± 0.6", "unit": "µg"},
      {"measurement": "Accumulation of sorbitol in crystalline lenses, treated", "setting": "[4]; 8 h, p < 0.05", "result": "12.3 ± 4.0", "unit": "µg"},
      {"measurement": "Accumulation of sorbitol in crystalline lenses, treated", "setting": "[4]; 24 h, p < 0.05", "result": "52 ± 10.1", "unit": "µg"},
      {"measurement": "Accumulation of sorbitol in crystalline lenses, treated", "setting": "[4]; 48 h", "result": "92.7 ± 18.6", "unit": "µg"},
      {"measurement": "duration of effect on sorbitol accumulation", "setting": "[4]; [7]", "result": "at least 48 hours"},
      {"measurement": "onset of effect on sorbitol accumulation", "setting": "[4]; [7]", "result": "observed as soon as soribol began to accumulate"},
      {"measurement": "Plasma glucose, treated", "setting": "[5]; 2 h", "result": "436 ± 45", "unit": "mg/100 ml"},
      {"measurement": "Plasma glucose, treated", "setting": "[5]; 4 h", "result": "359 ± 45", "unit": "mg/100 ml"},
      {"measurement": "Plasma glucose, treated", "setting": "[5]; 8 h", "result": "264 ± 73", "unit": "mg/100 ml"},
      {"measurement": "Plasma glucose, treated", "setting": "[5]; 24 h", "result": "485 ± 35", "unit": "mg/100 ml"},
      {"measurement": "Plasma glucose, treated", "setting": "[5]; 48 h", "result": "447 ± 34", "unit": "mg/100 ml"},
      {"measurement": "effect on the proportion of plasma glucose", "setting": "[5]; single oral dose 10 mg/kg", "result": "no effect"},
      {"measurement": "Accumulation of sorbitol in crystalline lenses, treated", "setting": "[6]; 2 h after administration", "result": "103 ± 27", "unit": "µg"},
      {"measurement": "Accumulation of sorbitol in crystalline lenses, treated", "setting": "[6]; 4 h after administration", "result": "99 ± 5", "unit": "µg"},
      {"measurement": "Accumulation of sorbitol in crystalline lenses, treated", "setting": "[6]; 8 h after administration", "result": "125 ± 8", "unit": "µg"},
      {"measurement": "Accumulation of sorbitol in crystalline lenses, treated", "setting": "[6]; 24 h after administration, p <0.0005", "result": "73 ± 18", "unit": "µg"},
      {"measurement": "Accumulation of sorbitol in crystalline lenses, treated", "setting": "[6]; 48 h after administration, p < 0.05", "result": "142 ± 47", "unit": "µg"},
      {"measurement": "accumulation of sorbitol in crystalline lenses (in words)", "setting": "[6]; single dose 10 mg/kg", "result": "completely inhibits"},
      {"measurement": "duration of effect", "setting": "[6]; [7]", "result": "≥ 48", "unit": "h"}
    ]}
  ]
}
